Test results published in patent US9113629B2, “4-amino-6-(4-substituted-phenyl)-picolinates and 6-amino-2-(4-substituted-phenyl)-pyrimidine-4-carboxylates and their use as herbicides” (DOW AGROSCIENCES LLC, priority 2013, dated 2015).

System: Key Broadleaf Weed and Crop Species
Experiment: Post-emergent Test II herbicidal activity (Table 5)
Type: in vivo
Conditions: post-emergence, 336 h; ABUTH: velvetleaf (Abutilon theophrasti); 70 g ai/ha; post-emergent; 14 days after application; read-out: Visual Growth Reduction (%) 14 Days After Application ABUTH
Summary of the method: (§1)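 Greenhouse post-emergent assay: seedlings (first/second true leaf) in Metro-Mix 360 were sprayed at 187 L/ha at a top rate plus twofold dilutions down to 1/16×; solvent-blank controls were included. Percent visual injury was read at 14 d.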

SMILES | pest or weed control at 70 g/ha [%]
COC(=O)c1nc(-c2ccc(C#N)c(F)c2)c(C)c(N)c1Cl [Compound 155, Methyl 4-amino-3-chloro-6-(4-cyano-3-fluorophenyl)-5-methylpicolinate] | 0 to 29

Same assay, conditions: post-emergence, 336 h; ABUTH: velvetleaf (Abutilon theophrasti); 140 g ai/ha; post-emergent; 14 days after application; read-out: Visual Growth Reduction (%) 14 Days After Application ABUTH

SMILES | pest or weed control at 140 g/ha [%]
COC(=O)c1nc(-c2ccc(C#N)c(F)c2)c(C)c(N)c1Cl [Compound 155, Methyl 4-amino-3-chloro-6-(4-cyano-3-fluorophenyl)-5-methylpicolinate] | 0 to 29

Same assay, conditions: post-emergence, 336 h; AMARE: redroot pigweed (Amaranthus retroflexus); 70 g ai/ha; post-emergent; 14 days after application; read-out: Visual Growth Reduction (%) 14 Days After Application AMARE

SMILES | pest or weed control at 70 g/ha [%]
COC(=O)c1nc(-c2ccc(C#N)c(F)c2)c(C)c(N)c1Cl [Compound 155, Methyl 4-amino-3-chloro-6-(4-cyano-3-fluorophenyl)-5-methylpicolinate] | 0 to 29

Same assay, conditions: post-emergence, 336 h; AMARE: redroot pigweed (Amaranthus retroflexus); 140 g ai/ha; post-emergent; 14 days after application; read-out: Visual Growth Reduction (%) 14 Days After Application AMARE

SMILES | pest or weed control at 140 g/ha [%]
COC(=O)c1nc(-c2ccc(C#N)c(F)c2)c(C)c(N)c1Cl [Compound 155, Methyl 4-amino-3-chloro-6-(4-cyano-3-fluorophenyl)-5-methylpicolinate] | 0 to 29

Same assay, conditions: post-emergence, 336 h; BRSNN: oilseed-rape, canola (Brassica napus); 70 g ai/ha; post-emergent; 14 days after application; read-out: Visual Growth Reduction (%) 14 Days After Application BRSNN

SMILES | pest or weed control at 70 g/ha [%]
COC(=O)c1nc(-c2ccc(C#N)c(F)c2)c(C)c(N)c1Cl [Compound 155, Methyl 4-amino-3-chloro-6-(4-cyano-3-fluorophenyl)-5-methylpicolinate] | 45 to 59

Same assay, conditions: post-emergence, 336 h; BRSNN: oilseed-rape, canola (Brassica napus); 140 g ai/ha; post-emergent; 14 days after application; read-out: Visual Growth Reduction (%) 14 Days After Application BRSNN

SMILES | pest or weed control at 140 g/ha [%]
COC(=O)c1nc(-c2ccc(C#N)c(F)c2)c(C)c(N)c1Cl [Compound 155, Methyl 4-amino-3-chloro-6-(4-cyano-3-fluorophenyl)-5-methylpicolinate] | 60 to 74

Same assay, conditions: post-emergence, 336 h; CHEAL: lambsquarters (Chenopodium album); 70 g ai/ha; post-emergent; 14 days after application; read-out: Visual Growth Reduction (%) 14 Days After Application CHEAL

SMILES | pest or weed control at 70 g/ha [%]
COC(=O)c1nc(-c2ccc(C#N)c(F)c2)c(C)c(N)c1Cl [Compound 155, Methyl 4-amino-3-chloro-6-(4-cyano-3-fluorophenyl)-5-methylpicolinate] | 85 to 94

Same assay, conditions: post-emergence, 336 h; CHEAL: lambsquarters (Chenopodium album); 140 g ai/ha; post-emergent; 14 days after application; read-out: Visual Growth Reduction (%) 14 Days After Application CHEAL

SMILES | pest or weed control at 140 g/ha [%]
COC(=O)c1nc(-c2ccc(C#N)c(F)c2)c(C)c(N)c1Cl [Compound 155, Methyl 4-amino-3-chloro-6-(4-cyano-3-fluorophenyl)-5-methylpicolinate] | 95 to 100

Same assay, conditions: post-emergence, 336 h; EPHHL: wild poinsettia (Euphorbia heterophylla); 70 g ai/ha; post-emergent; 14 days after application; read-out: Visual Growth Reduction (%) 14 Days After Application EPHHL

SMILES | pest or weed control at 70 g/ha [%]
COC(=O)c1nc(-c2ccc(C#N)c(F)c2)c(C)c(N)c1Cl [Compound 155, Methyl 4-amino-3-chloro-6-(4-cyano-3-fluorophenyl)-5-methylpicolinate] | 0 to 29

Same assay, conditions: post-emergence, 336 h; EPHHL: wild poinsettia (Euphorbia heterophylla); 140 g ai/ha; post-emergent; 14 days after application; read-out: Visual Growth Reduction (%) 14 Days After Application EPHHL

SMILES | pest or weed control at 140 g/ha [%]
COC(=O)c1nc(-c2ccc(C#N)c(F)c2)c(C)c(N)c1Cl [Compound 155, Methyl 4-amino-3-chloro-6-(4-cyano-3-fluorophenyl)-5-methylpicolinate] | 0 to 29

Same assay, conditions: post-emergence, 336 h; HELAN: sunflower (Helianthus annuus); 70 g ai/ha; post-emergent; 14 days after application; read-out: Visual Growth Reduction (%) 14 Days After Application HELAN

SMILES | pest or weed control at 70 g/ha [%]
COC(=O)c1nc(-c2ccc(C#N)c(F)c2)c(C)c(N)c1Cl [Compound 155, Methyl 4-amino-3-chloro-6-(4-cyano-3-fluorophenyl)-5-methylpicolinate] | 85 to 94

Same assay, conditions: post-emergence, 336 h; HELAN: sunflower (Helianthus annuus); 140 g ai/ha; post-emergent; 14 days after application; read-out: Visual Growth Reduction (%) 14 Days After Application HELAN

SMILES | pest or weed control at 140 g/ha [%]
COC(=O)c1nc(-c2ccc(C#N)c(F)c2)c(C)c(N)c1Cl [Compound 155, Methyl 4-amino-3-chloro-6-(4-cyano-3-fluorophenyl)-5-methylpicolinate] | 85 to 94

Same assay, conditions: post-emergence, 336 h; VIOTR: wild pansy (Viola tricolor); 70 g ai/ha; post-emergent; 14 days after application; read-out: Visual Growth Reduction (%) 14 Days After Application VIOTR

SMILES | pest or weed control at 70 g/ha [%]
COC(=O)c1nc(-c2ccc(C#N)c(F)c2)c(C)c(N)c1Cl [Compound 155, Methyl 4-amino-3-chloro-6-(4-cyano-3-fluorophenyl)-5-methylpicolinate] | 0 to 29

Same assay, conditions: post-emergence, 336 h; VIOTR: wild pansy (Viola tricolor); 140 g ai/ha; post-emergent; 14 days after application; read-out: Visual Growth Reduction (%) 14 Days After Application VIOTR

SMILES | pest or weed control at 140 g/ha [%]
COC(=O)c1nc(-c2ccc(C#N)c(F)c2)c(C)c(N)c1Cl [Compound 155, Methyl 4-amino-3-chloro-6-(4-cyano-3-fluorophenyl)-5-methylpicolinate] | 0 to 29

System: Key Grass and Sedge Weeds as well as Grass Crops
Experiment: Post-emergent Test II herbicidal activity (Table 6)
Type: in vivo
Conditions: Triticum aestivum, post-emergence, 336 h, TRZSS (wheat), application rate 70 g ai/ha, read-out: Visual Growth Reduction (%) 14 Days After Application, TRZSS
Summary of the method: as §1

SMILES | pest or weed control at 70 g/ha [%]
COC(=O)c1nc(-c2ccc(C#N)c(F)c2)c(C)c(N)c1Cl [Compound 155, Methyl 4-amino-3-chloro-6-(4-cyano-3-fluorophenyl)-5-methylpicolinate] | 0 to 29

Same assay, conditions: Triticum aestivum, post-emergence, 336 h, TRZSS (wheat), application rate 140 g ai/ha, read-out: Visual Growth Reduction (%) 14 Days After Application, TRZSS

SMILES | pest or weed control at 140 g/ha [%]
COC(=O)c1nc(-c2ccc(C#N)c(F)c2)c(C)c(N)c1Cl [Compound 155, Methyl 4-amino-3-chloro-6-(4-cyano-3-fluorophenyl)-5-methylpicolinate] | 0 to 29

Same assay, conditions: post-emergence, 336 h, CYPES: yellow nutsedge (Cyperus esculentus), application rate 70 g ai/ha, read-out: Visual Growth Reduction (%) 14 Days After Application, CYPES

SMILES | pest or weed control at 70 g/ha [%]
COC(=O)c1nc(-c2ccc(C#N)c(F)c2)c(C)c(N)c1Cl [Compound 155, Methyl 4-amino-3-chloro-6-(4-cyano-3-fluorophenyl)-5-methylpicolinate] | 0 to 29

Same assay, conditions: post-emergence, 336 h, CYPES: yellow nutsedge (Cyperus esculentus), application rate 140 g ai/ha, read-out: Visual Growth Reduction (%) 14 Days After Application, CYPES

SMILES | pest or weed control at 140 g/ha [%]
COC(=O)c1nc(-c2ccc(C#N)c(F)c2)c(C)c(N)c1Cl [Compound 155, Methyl 4-amino-3-chloro-6-(4-cyano-3-fluorophenyl)-5-methylpicolinate] | 0 to 29

Same assay, conditions: post-emergence, 336 h, DIGSA: crabgrass (Digitaria sanguinalis), application rate 70 g ai/ha, read-out: Visual Growth Reduction (%) 14 Days After Application, DIGSA

SMILES | pest or weed control at 70 g/ha [%]
COC(=O)c1nc(-c2ccc(C#N)c(F)c2)c(C)c(N)c1Cl [Compound 155, Methyl 4-amino-3-chloro-6-(4-cyano-3-fluorophenyl)-5-methylpicolinate] | 0 to 29

Same assay, conditions: post-emergence, 336 h, DIGSA: crabgrass (Digitaria sanguinalis), application rate 140 g ai/ha, read-out: Visual Growth Reduction (%) 14 Days After Application, DIGSA

SMILES | pest or weed control at 140 g/ha [%]
COC(=O)c1nc(-c2ccc(C#N)c(F)c2)c(C)c(N)c1Cl [Compound 155, Methyl 4-amino-3-chloro-6-(4-cyano-3-fluorophenyl)-5-methylpicolinate] | 0 to 29

Same assay, conditions: post-emergence, 336 h, ECHCG: barnyardgrass (Echinochloa crus-galli), application rate 70 g ai/ha, read-out: Visual Growth Reduction (%) 14 Days After Application, ECHCG

SMILES | pest or weed control at 70 g/ha [%]
COC(=O)c1nc(-c2ccc(C#N)c(F)c2)c(C)c(N)c1Cl [Compound 155, Methyl 4-amino-3-chloro-6-(4-cyano-3-fluorophenyl)-5-methylpicolinate] | 0 to 29

Same assay, conditions: post-emergence, 336 h, ECHCG: barnyardgrass (Echinochloa crus-galli), application rate 140 g ai/ha, read-out: Visual Growth Reduction (%) 14 Days After Application, ECHCG

SMILES | pest or weed control at 140 g/ha [%]
COC(=O)c1nc(-c2ccc(C#N)c(F)c2)c(C)c(N)c1Cl [Compound 155, Methyl 4-amino-3-chloro-6-(4-cyano-3-fluorophenyl)-5-methylpicolinate] | 0 to 29

Same assay, conditions: post-emergence, 336 h, ORYSA: rice (Oryza sativa), application rate 70 g ai/ha, read-out: Visual Growth Reduction (%) 14 Days After Application, ORYSA

SMILES | pest or weed control at 70 g/ha [%]
COC(=O)c1nc(-c2ccc(C#N)c(F)c2)c(C)c(N)c1Cl [Compound 155, Methyl 4-amino-3-chloro-6-(4-cyano-3-fluorophenyl)-5-methylpicolinate] | 0 to 29

Same assay, conditions: post-emergence, 336 h, ORYSA: rice (Oryza sativa), application rate 140 g ai/ha, read-out: Visual Growth Reduction (%) 14 Days After Application, ORYSA

SMILES | pest or weed control at 140 g/ha [%]
COC(=O)c1nc(-c2ccc(C#N)c(F)c2)c(C)c(N)c1Cl [Compound 155, Methyl 4-amino-3-chloro-6-(4-cyano-3-fluorophenyl)-5-methylpicolinate] | 0 to 29

Same assay, conditions: post-emergence, 336 h, SETFA: giant foxtail (Setaria faberi), application rate 70 g ai/ha, read-out: Visual Growth Reduction (%) 14 Days After Application, SETFA

SMILES | pest or weed control at 70 g/ha [%]
COC(=O)c1nc(-c2ccc(C#N)c(F)c2)c(C)c(N)c1Cl [Compound 155, Methyl 4-amino-3-chloro-6-(4-cyano-3-fluorophenyl)-5-methylpicolinate] | 0 to 29

Same assay, conditions: post-emergence, 336 h, SETFA: giant foxtail (Setaria faberi), application rate 140 g ai/ha, read-out: Visual Growth Reduction (%) 14 Days After Application, SETFA

SMILES | pest or weed control at 140 g/ha [%]
COC(=O)c1nc(-c2ccc(C#N)c(F)c2)c(C)c(N)c1Cl [Compound 155, Methyl 4-amino-3-chloro-6-(4-cyano-3-fluorophenyl)-5-methylpicolinate] | 0 to 29

Same assay, conditions: post-emergence, 336 h, SORVU: grain sorghum (Sorghum vulgare), application rate 70 g ai/ha, read-out: Visual Growth Reduction (%) 14 Days After Application, SORVU

SMILES | pest or weed control at 70 g/ha [%]
COC(=O)c1nc(-c2ccc(C#N)c(F)c2)c(C)c(N)c1Cl [Compound 155, Methyl 4-amino-3-chloro-6-(4-cyano-3-fluorophenyl)-5-methylpicolinate] | 0 to 29

Same assay, conditions: post-emergence, 336 h, SORVU: grain sorghum (Sorghum vulgare), application rate 140 g ai/ha, read-out: Visual Growth Reduction (%) 14 Days After Application, SORVU

SMILES | pest or weed control at 140 g/ha [%]
COC(=O)c1nc(-c2ccc(C#N)c(F)c2)c(C)c(N)c1Cl [Compound 155, Methyl 4-amino-3-chloro-6-(4-cyano-3-fluorophenyl)-5-methylpicolinate] | 0 to 29

Same assay, conditions: post-emergence, 336 h, ZEAMX: maize, corn (Zea mays), application rate 70 g ai/ha, read-out: Visual Growth Reduction (%) 14 Days After Application, ZEAMX

SMILES | pest or weed control at 70 g/ha [%]
COC(=O)c1nc(-c2ccc(C#N)c(F)c2)c(C)c(N)c1Cl [Compound 155, Methyl 4-amino-3-chloro-6-(4-cyano-3-fluorophenyl)-5-methylpicolinate] | 0 to 29

Same assay, conditions: post-emergence, 336 h, ZEAMX: maize, corn (Zea mays), application rate 140 g ai/ha, read-out: Visual Growth Reduction (%) 14 Days After Application, ZEAMX

SMILES | pest or weed control at 140 g/ha [%]
COC(=O)c1nc(-c2ccc(C#N)c(F)c2)c(C)c(N)c1Cl [Compound 155, Methyl 4-amino-3-chloro-6-(4-cyano-3-fluorophenyl)-5-methylpicolinate] | 0 to 29

System: not given
Experiment: not given
Conditions: not given

melting point [°C] | SMILES
177 to 180 | COC(=O)c1nc(-c2ccc(C#N)c(F)c2)c(C)c(N)c1Cl [Compound 155, Methyl 4-amino-3-chloro-6-(4-cyano-3-fluorophenyl)-5-methylpicolinate]
